# Experimental data reported in patent publication US10005768B2, “Carboxamide derivatives and use thereof” (Purdue Pharma L.P., priority 2013, dated 2018).
# Molecular target: human Nav1.7 (Homo sapiens (Human), UniProt Q15858)
# Test: FLIPR membrane potential dye assay (alternative fluorescence assay)
# Type: cell-based
# Settings: recombinant Nav1.7/HEK293 cells
# Experimental: In vitro assays were performed in a recombinant cell line expressing cDNA encoding the alpha subunit (Nav1.7, SCN9a, PN1, NE) of human Nav1.7 (Accession No. NM_002977). The cell line was provided by investigators at Yale University (Cummins et al, J. Neurosci. 18(23): 9607-9619 (1998)). For dominant selection of the Nav1.7-expressing clones, the expression plasmid co-expressed the neomycin resistance gene. The cell line was constructed in the human embryonic kidney cell line, HEK293, under the influence of the CMV […] promoter, and stable clones were selected using limiting dilution cloning and antibiotic selection using the neomycin analogue, G418. Recombinant beta and gamma subunits were not introduced into this cell line. Additional cell lines expressing recombinant Nav1.7 cloned from other species can also be used, alone or in combination with various beta subunits, gamma subunits or chaperones.
# A fluorescence indicator that can be used in alternative fluorescence assays is the blue version membrane potential dye (MDS, Molecular Devices, Sunnyvale, Calif.), a dye that detects changes in molecules following a change in membrane potential. An increase in fluorescence is expected if agonist stimulation provokes a change in membrane potential. Cells expressing Nav1.7 or other sodium channels are incubated with the membrane potential dye 30-60 minutes before the fluorescence assay. In the case of the KCl pre-stimulation version of the assay, the dye and all other components are washed out immediately before the assay, and the dye is then replaced. In the version lacking KCl pre-stimulation, the dye remains on the cells and is not washed out or replaced. The dye is stored in the dark as a lyophilized powder, and then an aliquot dissolved in assay buffer to form a 20×-concentrated stock solution that can be used for several weeks.
# In the fluorescence assays, two agonists were used in combination, namely 1) veratridine; and 2) the venom from the yellow scorpion, Leiurus quinquestriatus hebraeus. Veratridine is an alkaloid small molecule that facilitates the capture of channel openings by inhibiting inactivation, and the scorpion venom is a natural preparation that includes peptide toxins selective for different subsets of voltage-gated sodium channels. These scorpion toxins inhibit the fast inactivation of their cognate target channels. Stock solutions of the agonists were prepared to 40 mM in DMSO (veratridine) and 1 mg/mL in dH2O (scorpion venom), and then diluted to make a 4× or 2× stock (depending on the particular assay) in assay buffer, the final concentration being 100 μM (veratridine) and 10 μg/mL (scorpion venom). Both of the agonists were purchased from Sigma Aldrich, St. Louis, Mo.
# Test compounds were dissolved in DMSO to yield 10 mM stock solutions. The stock solutions were further diluted using DMSO in 1:3 serial dilution steps with 10 points (10,000 μM, […], 370 μM, 123 μM, 41 μM, 14 μM, 4.6 μM, 1.5 μM and 0.5 μM). The stock solutions were further diluted in assay buffer (1:125) as 4× stock serial dilutions with a DMSO concentration of 0.8% (final [DMSO], in the assay, from the compounds component=0.2%), so that the compounds' final concentrations in the assay were 20 μM, 6.7 μM, 2.2 μM, 0.74 μM, 0.25 μM and 0.08 μM, 0.03 μM, 0.01 μM, 0.003 μM and 0.001 μM. If a particular test article appeared to be especially potent, then the concentration curve was adjusted, e.g., to 10-fold lower concentrations, in order to perform the dose-response in a more relevant concentration range. Compound dilutions were added during the dye-loading and pre-stimulation step, and then again during the fluorescence assay, early in the kinetic read.
# The data were analyzed according to methods known to those skilled in the art or using the GraphPad® Prism Program, version 4.0 or higher (available from GraphPad Software, San Diego, Calif.) to determine the IC50 value for the test article. […]
# human Nav1.7, sequence (Q15858 other isoform, or with tags, fused parts or gaps): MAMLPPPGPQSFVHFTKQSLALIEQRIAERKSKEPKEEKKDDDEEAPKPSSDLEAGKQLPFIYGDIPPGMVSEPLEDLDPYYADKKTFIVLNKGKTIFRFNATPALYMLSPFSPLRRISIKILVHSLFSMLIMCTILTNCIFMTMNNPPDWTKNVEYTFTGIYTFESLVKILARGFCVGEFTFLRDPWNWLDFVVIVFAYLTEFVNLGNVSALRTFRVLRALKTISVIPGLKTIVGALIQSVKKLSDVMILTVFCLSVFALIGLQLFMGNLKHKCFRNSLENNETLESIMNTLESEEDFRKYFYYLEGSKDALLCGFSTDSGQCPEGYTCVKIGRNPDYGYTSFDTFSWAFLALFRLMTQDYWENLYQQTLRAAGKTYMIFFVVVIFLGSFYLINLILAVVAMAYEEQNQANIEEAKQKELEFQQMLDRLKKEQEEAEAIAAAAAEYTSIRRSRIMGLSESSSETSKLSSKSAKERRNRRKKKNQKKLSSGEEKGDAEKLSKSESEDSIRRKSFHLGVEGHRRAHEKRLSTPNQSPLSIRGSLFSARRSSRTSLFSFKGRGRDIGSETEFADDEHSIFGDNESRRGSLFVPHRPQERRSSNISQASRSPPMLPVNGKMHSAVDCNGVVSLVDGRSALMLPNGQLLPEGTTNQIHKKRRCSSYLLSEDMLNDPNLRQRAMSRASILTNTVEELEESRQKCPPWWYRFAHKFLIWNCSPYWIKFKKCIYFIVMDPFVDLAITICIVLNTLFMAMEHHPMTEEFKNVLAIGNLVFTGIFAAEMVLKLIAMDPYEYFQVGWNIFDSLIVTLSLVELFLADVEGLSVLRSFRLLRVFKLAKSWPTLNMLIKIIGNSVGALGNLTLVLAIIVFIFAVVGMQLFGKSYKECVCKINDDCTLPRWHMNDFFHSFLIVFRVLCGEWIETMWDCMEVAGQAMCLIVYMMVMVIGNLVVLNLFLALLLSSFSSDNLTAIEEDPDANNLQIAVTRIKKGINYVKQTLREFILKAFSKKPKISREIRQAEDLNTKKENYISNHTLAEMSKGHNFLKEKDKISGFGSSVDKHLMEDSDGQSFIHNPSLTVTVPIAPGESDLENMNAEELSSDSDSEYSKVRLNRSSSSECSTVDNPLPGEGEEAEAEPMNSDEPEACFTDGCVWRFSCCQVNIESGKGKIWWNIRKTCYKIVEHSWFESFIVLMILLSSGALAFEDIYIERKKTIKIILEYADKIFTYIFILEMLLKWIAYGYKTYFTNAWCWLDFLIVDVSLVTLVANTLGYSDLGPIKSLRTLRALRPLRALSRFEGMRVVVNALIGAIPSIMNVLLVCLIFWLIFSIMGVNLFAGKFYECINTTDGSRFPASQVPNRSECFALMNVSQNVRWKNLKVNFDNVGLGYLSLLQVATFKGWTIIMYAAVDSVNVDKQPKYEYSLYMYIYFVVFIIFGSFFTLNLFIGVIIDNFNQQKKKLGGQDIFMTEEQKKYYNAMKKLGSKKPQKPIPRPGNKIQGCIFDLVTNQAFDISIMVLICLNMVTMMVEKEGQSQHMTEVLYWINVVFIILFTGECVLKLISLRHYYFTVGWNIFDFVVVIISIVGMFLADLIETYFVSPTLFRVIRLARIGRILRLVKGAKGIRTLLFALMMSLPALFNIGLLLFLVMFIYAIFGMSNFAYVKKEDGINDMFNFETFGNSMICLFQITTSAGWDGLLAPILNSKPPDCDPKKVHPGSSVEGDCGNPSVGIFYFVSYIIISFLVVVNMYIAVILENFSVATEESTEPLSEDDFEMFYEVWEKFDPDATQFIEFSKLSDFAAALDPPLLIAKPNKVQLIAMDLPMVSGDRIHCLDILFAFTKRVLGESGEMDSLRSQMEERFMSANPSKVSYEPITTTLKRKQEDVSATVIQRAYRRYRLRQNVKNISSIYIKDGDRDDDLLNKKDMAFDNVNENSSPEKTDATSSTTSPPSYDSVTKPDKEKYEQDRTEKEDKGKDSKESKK
row,IC50 [µM],Structure (SMILES)
1,9.8 ± 0.365,"NC(=O)c1cc(C(=O)O)nc(-c2ccc(Oc3ccc(C(F)(F)F)cc3CN3CCOCC3)cc2)n1 [compound 132, 6-carbamoyl-2-(4-(2-(morpholinomethyl)-4-(trifluoromethyl)phenoxy)phenyl) pyrimidine-4-carboxylic acid]"
2,> 20,"CCN(CC)Cc1cc(C(F)(F)F)ccc1Oc1ccc(-c2nc(C(N)=O)cc(C(=O)O)n2)cc1 [compound 131, 6-carbamoyl-2-(4-(2-((diethylamino)methyl)-4-(trifluoromethyl)phenoxy)phenyl) pyrimidine-4-carboxylic acid]"
3,0.519 ± 0.083,"CCN(CC)C(=O)c1cc(C(F)(F)F)ccc1Oc1ccc(-c2cccc([C@H](O)CO)n2)cc1 [compound 168, (S)-2-(4-(6-(1,2-dihydroxyethyl)pyridin-2-yl)phenoxy)-N,N-diethyl-5-(trifluoromethyl)benzamide]"
4,0.684 ± 0.034,"CN(C)c1ncc(-c2cc(C(F)(F)F)ccc2Oc2ccc(-c3nc(N[C@H]4CCNC4=O)cc(C(N)=O)n3)cc2)cn1 [compound 128, (S)-2-(4-(2-(2-(dimethylamino)pyrimidin-5-yl)-4-(trifluoromethyl)phenoxy)phenyl)-6-((2-oxopyrrolidin-3-yl)amino)pyrimidine-4-carboxamide]"
5,0.6 ± 0.077,"C[C@H](Nc1cc(C(N)=O)nc(-c2ccc(Oc3ccc(C(F)(F)F)cc3-c3ccnn3C)cc2)n1)C(N)=O [compound 138, (S)-6-((1-amino-1-oxopropan-2-yl)amino)-2-(4-(2-(1-methyl-1H-pyrazol-5-yl)-4-(trifluoromethyl)phenoxy)phenyl) pyrimidine-4-carboxamide]"
6,0.393 ± 0.048,"C[C@H](Nc1cc(C(N)=O)nc(-c2ccc(Oc3ccc(C(F)(F)F)cc3-c3cnc(N(C)C)cn3)cc2)n1)C(N)=O [compound 134, (S)-6-((1-amino-1-oxopropan-2-yl)amino)-2-(4-(2-(5-(dimethylamino)pyrazin-2-yl)-4-(trifluoromethyl)phenoxy)phenyl) pyrimidine-4-carboxamide]"
7,3.61 ± 0.229,"O=C(Nc1nncs1)c1cc(C(F)(F)F)ccc1Oc1ccc(-c2cccc([C@H](O)CO)n2)cc1 [compound 174, (S)-2-(4-(6-(1,2-dihydroxyethyl)pyridin-2-yl)phenoxy)-N-(1,3,4-thiadiazol-2-yl)-5-(trifluoromethyl)-benzamide]"
8,1.31 ± 0.054,"O=C(Nc1nccs1)c1cc(C(F)(F)F)ccc1Oc1ccc(-c2cccc([C@H](O)CO)n2)cc1 [compound 175, (S)-2-(4-(6-(1,2-dihydroxyethyl)pyridin-2-yl)phenoxy)-N-(thiazol-2-yl)-5-(trifluoromethyl)benzamide]"
9,1.28 ± 0.135,"CCN(CC)Cc1cc(C(F)(F)F)ccc1Oc1ccc(-c2nc(C(N)=O)cc([C@H](O)CO)n2)cc1 [compound 130, (S)-2-(4-(2-((diethylamino)methyl)-4-(trifluoromethyl)phenoxy)phenyl)-6-(1,2-dihydroxyethyl)pyrimidine-4-carboxamide]"
10,> 20,"NC(=O)c1cc(N[C@H]2CCNC2=O)nc(-c2ccc(Oc3ccc(Cl)cc3-c3ccnn3C3CNC3)cc2)n1 [compound 137, (S)-2-(4-(2-(1-(azetidin-3-yl)-1H-pyrazol-5-yl)-4-chlorophenoxy)phenyl)-6-((2-oxopyrrolidin-3-yl)amino)pyrimidine-4-carboxamide]"
11,> 20,"NC(=O)C1CCCN(C(=O)c2cc(C(F)(F)F)ccc2Oc2ccc(-c3cccc([C@H](O)CO)n3)cc2)C1 (stereo partly drawn) [compound 173, 1-(2-(4-(6-((S)-1,2-dihydroxyethyl)pyridin-2-yl)phenoxy)-5-(trifluoromethyl)benzoyl)piperidine-3-carboxamide]"
12,0.294 ± 0.054,"Cn1nccc1-c1cc(C(F)(F)F)ccc1Oc1ccc(-c2cc([C@H](O)CO)cc(C(N)=O)n2)cc1 [compound 135, (S)-4-(1,2-dihydroxythyl)-6-(4-(2-(1-methyl-1H-pyrazol-5-yl)-4-(trifluoromethyl)phenoxy)phenyl) picolinamide]"
13,0.367 ± 0.028,"CCN(CC)Cc1cc(C(F)(F)F)ccc1Oc1ccc(-c2nc(CCOC(C)=O)cc(C(N)=O)n2)cc1 [compound 124, 2-(6-carbmoyl-2-(4-(2-((diethylamino)methyl)-4-(trifluoromethyl)phenoxy)phenyl)pyrimidin-4-yl)ethyl acetate]"
14,> 20,"O=C(c1cc(C(F)(F)F)ccc1Oc1ccc(-c2cccc([C@H](O)CO)n2)cc1)N1CC[C@H](O)C1 [compound 170, (2-(4-(6-((S)-1,2-dihydroxyethyl)pyridin-2-yl)phenoxy)-5-(trifluoromethyl)phenyl)((S)-3-hydroxypyrrolidin-1-yl)methanone]"
15,0.288 ± 0.045,"Cn1nccc1-c1cc(C(F)(F)F)ccc1Oc1ccc(-c2nc(N[C@H]3CCNC3=O)cc(C(N)=O)n2)cc1 [compound 126, (S)-2-(4-(2-(1-methyl-1H-pyrazol-5-yl)-4-(trifluoromethyl)phenoxy)phenyl)-6-((2-oxopyrrolidin-3-yl)amino)pyrimidine-4-carboxamide]"
16,> 20,"CCN(CCO)C(=O)c1cc(C(F)(F)F)ccc1Oc1ccc(-c2cccc([C@H](O)CO)n2)cc1 [compound 171, (S)-2-(4-(6-(1,2-dihydroxyethyl)pyridin-2-yl)phenoxy)-N-ethyl-N-(2-hydroxyethyl)-5-(trifluoro-methyl)benzamide]"
17,0.702 ± 0.035,"CN(C)c1cnc(-c2cc(C(F)(F)F)ccc2Oc2ccc(-c3nc(N[C@H]4CCNC4=O)cc(C(N)=O)n3)cc2)cn1 [compound 129, (S)-2-(4-(2-(5-(dimethylamino)pyrazin-2-yl)-4-(trifluoromethyl)phenoxy)phenyl)-6-((2-oxopyrrolidin-3-yl)amino)pyrimidine-4-carboxamide]"
18,0.45 ± 0.053,"Cn1nccc1-c1cc(Cl)ccc1Oc1ccc(-c2nc(N[C@H]3CCNC3=O)cc(C(N)=O)n2)cc1 [compound 141, (S)-2-(4-(4-chloro-2-(1-methyl-1H-pyrazol-5-yl)phenoxy)phenyl)-6-((2-oxopyrrolidin-3-yl)amino)-pyrimidine-4-carboxamide]"
19,10 to 20,"C[C@H](Nc1cc(C(N)=O)nc(-c2ccc(Oc3ccccc3-c3ccnn3C)cc2)n1)C(N)=O [compound 139, (S)-6-((1-amino-1-oxopropan-2-yl)amino)-2-(4-(2-(1-methyl-1H-pyrazol-5-yl)phenoxy)phenyl)-pyrimidine-4-carboxamide]"
20,0.079 ± 0.015,"Cn1nccc1-c1cc(C(F)(F)F)ccc1Oc1ccc(-c2nc(C(N)=O)cc([C@H](O)CO)n2)cc1 [compound 122, (S)-6-(1,2-dihydroxyethyl)-2-(4-(2-(1-methyl-1H-pyrazol-5-yl)-4-(trifluoromethyl)phenoxy)phenyl) pyrimidine-4-carboxamide]"
